The text below walks through data of PubChem BioAssay AID1996.

Values after ≈ are worked out from the molar mass of the structure shown.

The conditions of the data set: buffer; pH 7.4; 200.0 µM.
For the compound `Cc1ccc(N2C(=O)CN=C2Nc2nc(C)cc(C)n2)cc1`, the solubility (kinetic) (in general, the concentration staying in solution when a stock, usually in DMSO, is diluted into the medium) is over 44.3 µg/mL. Take `CCCc1nc2oc3c(Cl)ncnc3c2c2c1CCCC2`: the solubility (kinetic) is under 0.2 µg/mL.

Compound `Cc1cc(C(=O)OCC(=O)NCc2ccco2)c(C)o1` had a solubility (kinetic) of over 41.6 µg/mL. In the case of `CCN(CC(=O)Nc1ccc2c(c1)OCCO2)C(=O)/C=C/c1cccc(C(F)(F)F)c1`, the kinetic solubility was found to be 3.6 µg/mL (≈ 8.29 µM). In the case of `CC(=O)c1cccc(OCC(O)CNCCOc2ccc(C)cc2)c1` (configuration not stated), the kinetic solubility was 47.6 µg/mL (≈ 139 µM).

`COc1cc(C(=O)Nc2nc(C)cc(C)n2)cc(OC)c1OC` showed a solubility (kinetic) of 45.4 µg/mL (≈ 143 µM). In turn, `Cc1cnc(C(=O)OCc2c(C)cc(C(C)(C)C)cc2C)cn1` came in with a solubility (kinetic) of 9 µg/mL (≈ 28.8 µM). The same measure for `CCN(C(=O)CN1CCCC(C)C1)c1c(N)n(Cc2ccccc2)c(=O)[nH]c1=O` (configuration not stated): over 59.9 µg/mL; for `O=C(NC(=S)Nc1ccccc1Br)c1ccco1`: 3.1 µg/mL (≈ 9.53 µM); for `CC(=O)NC(CC(=O)O)c1ccc(F)cc1` (configuration not stated): over 33.8 µg/mL. For the compound `COc1ccc(CN(C)C(=O)c2[nH]c(C)c(C(C)=O)c2C)cc1F`, the kinetic solubility was over 49.9 µg/mL. As to `COc1ccccc1-n1c(C)c(C(C)=O)c2cc(O)ccc21`, the kinetic solubility was determined as 3 µg/mL (≈ 10.2 µM). Take `N#Cc1ccccc1OCC(=O)OCC(=O)NC1CCCCCC1`: the solubility (kinetic) was over 49.6 µg/mL. `CN1C(=O)c2ccc(NC(=O)c3cccc4ccccc34)cc2C1=O`: the kinetic solubility came to 0.8 µg/mL (≈ 2.42 µM). Compound `O=C(Nc1cnccn1)Nc1ccccc1F` returned a kinetic solubility of 8.7 µg/mL (≈ 37.5 µM). The same measure for `CCC(=O)c1ccc(SC(=O)N(C)C)cc1O`: 33.7 µg/mL (≈ 133 µM); for `CC(C(O)c1ccc(O)cc1)N1CCC(Cc2ccccc2)CC1.O=C(O)C(O)C(O)C(=O)O` (configuration not stated): over 71.3 µg/mL. On to `CCCN1CCN(S(=O)(=O)c2ccc3c(c2)OCCO3)CC1`, for which the solubility (kinetic) is over 49 µg/mL. `CN(C)S(=O)(=O)c1ccc(C(=O)NC(=O)CSc2nncs2)cc1` showed a kinetic solubility of over 58 µg/mL. The compound `O=C(Nc1cccc(F)c1)N1CCCCCC1` yielded a solubility (kinetic) of over 35.4 µg/mL. With `O=S(=O)(/C=C/c1ccccc1)N1CCNCC1`, the kinetic solubility was over 37.8 µg/mL.

As to `COc1cc2ncnc(NCc3ccccc3F)c2cc1OC`, the solubility (kinetic) came out at 41.8 µg/mL (≈ 133 µM). Consider `C=CCN1CCN(C(=O)c2ccc(-c3ccccc3)cc2)CC1`, for which the kinetic solubility was found to be 32.3 µg/mL (≈ 105 µM).

`Nc1ccccc1S(=O)(=O)C(F)F`: the solubility (kinetic) was determined as 28.4 µg/mL (≈ 137 µM). `CCC(C(=O)NCCc1ccc(S(N)(=O)=O)cc1)c1ccccc1` (configuration not stated) had a kinetic solubility of over 52 µg/mL. Consider `CSc1ncccc1C(=O)Nc1nc2ccc(F)cc2s1`, for which the kinetic solubility is 1.8 µg/mL (≈ 5.64 µM). The value for `Cc1ccsc1C(=O)OCc1nc2ccsc2c(=O)[nH]1` was over 46 µg/mL. Compound `Cc1cc(C(=O)Nc2cc(Br)ccc2O)on1` gave a solubility (kinetic) of 7.6 µg/mL (≈ 25.6 µM). For the compound `CN(C)/C=C/C(=O)c1cccc(Oc2ncccn2)c1`, the kinetic solubility is over 40.4 µg/mL. Compound `COc1ccc(S(=O)(=O)NC2CC2)cc1Cl` returned a solubility (kinetic) of 35.3 µg/mL (≈ 135 µM).

In turn, `COc1cccc(-c2nc(CCl)cs2)c1OC.Cl` returned a kinetic solubility of 32.4 µg/mL. `O=C(Nc1cc(C(F)(F)F)ccc1N1CCOCC1)c1ccncc1` returned a kinetic solubility of over 52.7 µg/mL. `CC(C)c1csc2nc3n(c(=O)c12)CCCCC3` registered a solubility (kinetic) of 32.9 µg/mL (≈ 125 µM).

As to `CC(C)Cc1ccc(C(=O)NCc2ccc3c(c2)OCO3)o1`, the solubility (kinetic) was 28.3 µg/mL (≈ 93.9 µM). `CC1CN(S(=O)(=O)c2cccc(C(=O)N3CCC(C(N)=O)CC3)c2)CC(C)O1` (configuration not stated) yielded a solubility (kinetic) of over 61.4 µg/mL. Turning to `CN1C(=S)SC2CS(=O)(=O)CC21` (configuration not stated), the solubility (kinetic) is over 33.5 µg/mL. The same measure for `COC(=O)CSc1ncnc2c(C)csc12`: 29.9 µg/mL (≈ 118 µM); for `O=[N+]([O-])c1ccccc1OCCCOc1cccc2cccnc12`: 18.2 µg/mL (≈ 56.1 µM). Consider `CCN(CC)CCn1c(C)nc2ccccc21.Cl`, for which the solubility (kinetic) stood at 40.6 µg/mL.

For the compound `Clc1ccc(C2=CSC3=NCCN23)c(Cl)c1.[Br-]`, the solubility (kinetic) was over 52.7 µg/mL. In turn, `COC(=O)c1ccccc1CC1SC(N)=NC1=O` (configuration not stated) gave a kinetic solubility of over 39.6 µg/mL. `COc1ccc(S(=O)(=O)N2CCC(C(=O)NC3CC3)CC2)cc1` came in with a solubility (kinetic) of over 50.8 µg/mL.

`CC1=C/C(=N\OS(=O)(=O)c2ccccc2)C(C(C)C)=CC1=O` showed a solubility (kinetic) of over 47.9 µg/mL. In turn, `CC(C)CNC(=O)CN1c2cccc3cccc(c23)S1(=O)=O` registered a solubility (kinetic) of over 47.8 µg/mL. `O=C(CCc1ccccc1)NC(=S)Nc1cccc(C(=O)O)c1` showed a solubility (kinetic) of over 49.3 µg/mL. `O=C(CSc1cccc[n+]1[O-])Nc1ccc(Cl)cc1F`: the kinetic solubility stood at 15.1 µg/mL (≈ 48.3 µM). For `CCN(CC(=O)NCCN1CCOCC1)S(=O)(=O)c1ccc(F)cc1`, the solubility (kinetic) is over 56 µg/mL. In turn, `CS(=O)(=O)c1ccc(C(=O)N2CCc3ccccc3C2)cc1` had a kinetic solubility of over 47.3 µg/mL.

Compound `COc1ccc(NC(=O)CSc2nc3c(c(-c4cccs4)c2C#N)CN(C)CC3)cc1OC` yielded a kinetic solubility of 19.9 µg/mL (≈ 41.4 µM). The same measure for `Fc1ccccc1OCCCCN1CCCCC1`: 27.7 µg/mL (≈ 110 µM). In turn, `CC1(C)CC(=O)C=C(Nc2cccc(C(F)(F)F)c2)C1` displayed a solubility (kinetic) of 24 µg/mL (≈ 84.7 µM). `CCC(C)c1ccc(NC(=O)Nc2cnccn2)cc1` (configuration not stated) registered a kinetic solubility of 1.3 µg/mL (≈ 4.81 µM).
